Each structure is given as a SMILES string.

One assay has as its system Grp78. Briefly: Grp78 immunoblot in HT1080 cells. The settings on record: 2.5 μM, 16 hours (also 24 or 36 hours). It is filed as cell-based, human. As for the experimental part:
Cells (2×10^6) were cultured in 10-cm dishes, collected using a cell scraper at 4° C., and lysed by addition of 150 μl cell lysis buffer [50 mM Tris pH 7.4, 150 mM NaCl, 10% glycerol, 0.5% Triton X-100. 0.5% NP-40, 2 mM Na3VO4, 20 mM beta-glycerophosphate, 10 mM NaF, 1 mM DTT, 1 mM PMSF). Lysates were centrifuged for 5 min at 10,000×g, and proteins (˜40 μg) were resolved by SDS-PAGE followed by semi-dry transfer to nitrocellulose membranes. Membranes were blocked in TBS-5% milk supplemented with 0.1% Tween-20. The blots were then probed overnight with relevant antibodies, washed, and incubated for 2 hours with species-specific secondary antibodies conjugated to horseradish peroxidase. After washing in block solution, immunoreactive material was detected by enhanced chemiluminescence (SuperSignal West Dura Extended, Pierce, Inc., Rockville, Ill.).
HT1080 cells were exposed to DMSO vehicle (lane 1), irestatin 9389 (2.5 μM; lane 2) for 16 hours or Tm (5 μg/ml; lane 3) for 8 hours. Following treatments, cells were harvested, lysed, and analyzed by immunoblotting using anti-Grp78 antibody (top) or anti-actin (bottom) as a loading control. […] Cell lysates were analyzed by Western immunoblotting using anti-IRE1α (bottom) or anti-phospho-IRE1α antibodies (top). […] Lysates were analyzed by Western blot using antisera specific for phospho-JNK1 (top) or total JNK1 (bottom). […]
Background: Immunoblotting shows a protein as a band on a membrane.

A further assay has as its target T1, IRE1α-cyto (Homo sapiens, UniProt O75460).
T1 construct: purified the full cytosolic portion of IRE1α (His6-IRE1α-cyto) containing both kinase and endonuclease domains; 6x-His; made in house; host or cells: bacteria
Briefly: In vitro IRE1α endonuclease (ribonuclease) assay. Particulars: 2.5 μM. It is filed as biochemical. As for the experimental part:
The in vitro ribonuclease assays were carried out using purified IRE1α-cyto essentially as described. Gonzalez and Walter, Methods Mol Biol 160: 25-36 (2001); Gonzalez et al., Embo J 18: 3119-3132 (1999). For each reaction, 5 μg purified IRE1α-cyto was incubated with 300 ng of fluorescein-labeled RNA stem-loop substrate at 37° C. in a total volume of 300 μl. Aliquots (50 μl) were withdrawn at the indicated times and mixed with an equal volume of stop solution. Id. Reactions were analyzed by SDS-PAGE using 10-20% acrylamide gradient gels. The sequence for the hXBP-1 3′ RNA stem-loop substrate is as follows: 5′[…] G 3′ (SEQ ID NO: 8). […]
HT1080 cells were exposed to DMSO vehicle (lane 1), irestatin 9389 (2.5 μM; lane 2) for 16 hours or Tm (5 μg/ml; lane 3) for 8 hours. Following treatments, cells were harvested, lysed, and analyzed by immunoblotting using anti-Grp78 antibody (top) or anti-actin (bottom) as a loading control. […] Cell lysates were analyzed by Western immunoblotting using anti-IRE1α (bottom) or anti-phospho-IRE1α antibodies (top). […] Lysates were analyzed by Western blot using antisera specific for phospho-JNK1 (top) or total JNK1 (bottom). […] F. Quantification of RNA cleavage kinetics. […] Samples were analyzed as in (E).
Next we determined whether irestatin 9389 inhibited the endonuclease function of IRE1α. […]

Assay [1] relates to PANC1 pancreatic adenocarcinoma cells. Briefly: PANC1 tumor growth in nude mice. Particulars: 60 mg/kg bolus every 48 hours, 5 doses, 5-7 tumors per group. It is filed as in vivo, mouse. The procedure: Dose: 60 mg/kg ip bolus injection every 48 hours. 5 total doses. 5-7 tumors per group. PANC1 pancreatic adenocarcinoma cell line.
PANC1 pancreatic adenocarcinoma cells were implanted subcutaneously into nude mice. Mice were then given a bolus injection of one of the inventive irestatins (1401, 9337, 3611 or 9389) at a dose of 60 mg/kg every 48 hours for a total of 5 doses, with 5-7 tumors being treated per group.

T1 sequence (O75460 465-977 limits assumed): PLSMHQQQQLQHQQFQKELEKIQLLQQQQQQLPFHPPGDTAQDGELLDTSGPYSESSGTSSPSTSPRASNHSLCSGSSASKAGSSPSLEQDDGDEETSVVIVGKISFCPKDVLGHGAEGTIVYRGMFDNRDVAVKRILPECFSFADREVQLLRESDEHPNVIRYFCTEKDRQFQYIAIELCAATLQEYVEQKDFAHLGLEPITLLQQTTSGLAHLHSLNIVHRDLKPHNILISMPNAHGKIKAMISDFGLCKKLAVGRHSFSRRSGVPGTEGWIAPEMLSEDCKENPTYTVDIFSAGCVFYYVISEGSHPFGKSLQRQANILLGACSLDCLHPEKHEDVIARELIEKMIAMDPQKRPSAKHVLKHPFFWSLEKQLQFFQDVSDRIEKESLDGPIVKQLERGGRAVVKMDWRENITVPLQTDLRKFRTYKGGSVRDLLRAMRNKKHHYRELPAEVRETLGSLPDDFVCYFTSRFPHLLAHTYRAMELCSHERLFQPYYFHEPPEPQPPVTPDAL

As to `Cc1csc(NC(=O)CSc2nc3c(c(C(F)(F)F)c2C#N)CCC3)n1` [Compound 9389], the Grp78 levels result with Grp78 (listed as Irestatin 9389) is listed as “does not modulate the expression of Grp78”; in the assay with Grp78 (listed as irestatin 9389) it was “no effect on Grp78 levels”. Further, the “cleavage of XBP-1 RNA substrate by His6-IRE1α-cyto” value on IRE1α-cyto is on record as “strongly inhibited cleavage”. The tumor growth result in assay [1] is “significant tumor growth was observed in untreated mice, but not in mice treated with the irestatins”.

For the origin of these results see patent US20090291857A1, “METHODS TO IDENTIFY INHIBITORS OF THE UNFOLDED PROTEIN RESPONSE” (THE BOARD OF TRUSTEES OF THE LELAND STANFORD JUNIOR …, priority 2006, published 2009).
